Here are results for one compound from ChEMBL document CHEMBL6103622 (J Med Chem, 2025).

Series [1] concerns the target T1, Macrophage colony-stimulating factor 1 receptor (Homo sapiens, UniProt P07333). As to the kind of experiment: Inhibition of CSF-1R (unknown origin).
In series [2] the target is T2, Macrophage colony-stimulating factor 1 receptor (Mus musculus) (UniProt P09581).
T2 sequence (whole entry): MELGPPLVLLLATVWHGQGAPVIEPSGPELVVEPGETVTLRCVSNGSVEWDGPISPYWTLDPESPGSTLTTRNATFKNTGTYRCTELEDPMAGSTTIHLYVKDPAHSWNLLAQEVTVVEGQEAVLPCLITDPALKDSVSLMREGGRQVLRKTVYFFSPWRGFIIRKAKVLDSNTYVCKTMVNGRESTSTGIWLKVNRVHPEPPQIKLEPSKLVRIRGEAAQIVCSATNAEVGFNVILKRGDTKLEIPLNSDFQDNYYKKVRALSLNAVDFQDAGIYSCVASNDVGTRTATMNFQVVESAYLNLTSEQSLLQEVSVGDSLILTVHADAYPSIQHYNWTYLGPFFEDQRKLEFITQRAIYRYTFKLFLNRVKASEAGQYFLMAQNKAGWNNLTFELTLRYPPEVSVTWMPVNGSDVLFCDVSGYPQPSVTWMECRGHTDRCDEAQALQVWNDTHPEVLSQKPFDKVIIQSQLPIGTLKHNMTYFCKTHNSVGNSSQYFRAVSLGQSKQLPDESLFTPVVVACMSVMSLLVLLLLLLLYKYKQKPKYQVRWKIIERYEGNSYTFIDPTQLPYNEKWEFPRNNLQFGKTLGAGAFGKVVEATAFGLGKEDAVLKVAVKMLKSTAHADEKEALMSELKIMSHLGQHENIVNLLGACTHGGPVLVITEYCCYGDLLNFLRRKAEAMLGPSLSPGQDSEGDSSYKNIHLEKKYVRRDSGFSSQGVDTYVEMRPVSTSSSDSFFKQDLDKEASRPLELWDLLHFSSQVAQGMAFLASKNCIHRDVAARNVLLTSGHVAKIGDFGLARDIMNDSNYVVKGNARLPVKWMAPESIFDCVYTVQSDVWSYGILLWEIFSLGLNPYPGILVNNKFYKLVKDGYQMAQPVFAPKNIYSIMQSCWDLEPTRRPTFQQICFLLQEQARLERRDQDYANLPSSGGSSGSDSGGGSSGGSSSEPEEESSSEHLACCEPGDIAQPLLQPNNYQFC
As to the kind of experiment: Inhibition of CSF-1R signaling pathway activation in female C57BL/6 mouse BMDM cells assessed as reduction in CSF-1R phosphorylation at Tyr723 residue at 100 nM preincubated with compounds for 4 hrs followed by M-CSF stimulation and measured after 30 mins by Western blot analysis. It is filed as cell-based. Particulars: time 4.5 hrs. (In general: Immunoblotting shows a protein as a band on a membrane.)

The target in series [3] is T2, Macrophage colony-stimulating factor 1 receptor (Mus musculus). As to the kind of experiment: Inhibition of CSF-1R signaling pathway activation in female C57BL/6 mouse BMDM cells assessed as reduction in AKT phosphorylation preincubated with compounds for 4 hrs followed by M-CSF stimulation and measured after 30 mins by Western blot analysis. It is filed as cell-based. As to conditions: dose 10-100 nM, time 4.5 hrs.

Series [4] has the same target. As to the kind of experiment: Inhibition of CSF-1R signaling pathway activation in female C57BL/6 mouse BMDM cells assessed as reduction in STAT3 phosphorylation preincubated with compounds for 4 hrs followed by M-CSF stimulation and measured after 30 mins by Western blot analysis. The class given is cell-based. As to conditions: dose 10-100 nM, time 4.5 hrs.
Series [5] has the same target. As to the kind of experiment: Induction of thermal stabilization of CSF-1R in female C57BL/6 mouse BMDM cells assessed as increase in melting temperature at 100 nM incubated for 1 hrs under 52 to 68 degreeC by CETSA. The class given is cell-based.
The target in series [6] is T1, Macrophage colony-stimulating factor 1 receptor. As to the kind of experiment: Binding affinity to recombinant CSF-1R (unknown origin) assessed as equilibrium dissociation constant by SPR analysis. A general note: In SPR one partner is held on a chip, and binding of the other changes the refractive index at the surface.
Series [7] has as its system BMDM. As to the kind of experiment: Induction of repolarization of M2 like macrophage into M1 phenotype in female C57BL/6 mouse BMDM cells assessed as increase in Tnf mRNA expression at 10 to 100 nM stimulated with mouse IL4/IL-13 for 24 hrs followed by compound addition and measured after 24 hrs by qPCR analysis. The class given is functional, cell-based. As to conditions: dose 10-100 nM. Background: In qPCR the cycle at which signal appears reflects the starting amount.

For series [8], the system named is BMDM. As to the kind of experiment: Induction of repolarization of M2 like macrophage into M1 phenotype in female C57BL/6 mouse BMDM cells assessed as decrease in Chil3l mRNA expression at 10 to 100 nM stimulated with mouse IL4/IL-13 for 24 hrs followed by compound addition and measured after 24 hrs by qPCR analysis. It is filed as functional, cell-based. As to conditions: dose 10-100 nM.

In series [9] the test system is BMDM. As to the kind of experiment: Induction of repolarization of M2 like macrophage into M1 phenotype in female C57BL/6 mouse BMDM cells assessed as decrease in Mrc1 mRNA expression at 10 to 100 nM stimulated with mouse IL4/IL-13 for 24 hrs followed by compound addition and measured after 24 hrs by qPCR analysis. The class given is functional, cell-based. Particulars: dose 10-100 nM.

The test system of series [10] is MC-38. As to the kind of experiment: Induction of apoptosis in mouse MC38 cells assessed as early apoptotic cells at 10 nM by Annexin V/PI staining based flow cytometric analysis (reference value: 1.91 %). The class given is functional.
Series [11] relates to MC-38. As to the kind of experiment: Induction of apoptosis in mouse MC38 cells assessed as late apoptotic cells at 30 nM by Annexin V/PI staining based flow cytometric analysis (reference value: 0.85 %). The class given is functional.
Series [12] relates to MC-38. As to the kind of experiment: Induction of apoptosis in mouse MC38 cells assessed as early apoptotic cells at 100 nM by Annexin V/PI staining based flow cytometric analysis (reference value: 1.91 %). The class given is functional.
For series [13], the system named is MC-38. As to the kind of experiment: Induction of apoptosis in mouse MC38 cells assessed as late apoptotic cells at 100 nM by Annexin V/PI staining based flow cytometric analysis (reference value: 0.85 %). The class given is functional.
Series [14] deals with MC-38. As to the kind of experiment: Inhibition of cell viability in mouse MC38 cells at 10 to 100 nM by MTT assay. It is filed as functional, cell-based. Particulars: dose 10-100 nM.
Series [15] deals with Colorectal cancer organoid. As to the kind of experiment: Antitumor activity against patient derived CRC organoids assessed as change in morphology of organoids at 10 to 100 nM incubated for 72 hrs. The class given is functional, tissue-based. Particulars: Homo sapiens, Colorectum, dose 10-100 nM.
A short description of series [16]: Terminal half-life in Sprague-Dawley rat at 1 mg/kg, iv. The class given is ADME, organism-based. As to conditions: in vivo, read-out: beta t1/2 (converted).
Series [17] in a line: AUC (0 to t) in Sprague-Dawley rat at 1 mg/kg, iv. The class given is ADME, organism-based. As to conditions: in vivo.
The nature of series [18]: Tmax in Sprague-Dawley rat at 10 mg/kg, po. As to conditions: in vivo. It is filed as ADME, organism-based.
A short description of series [19]: AUC (0 to t) in Sprague-Dawley rat at 10 mg/kg, po. The class given is ADME, organism-based. As to conditions: in vivo.
A short description of series [20]: AUC (0 to infinity) in Sprague-Dawley rat at 10 mg/kg, po. As to conditions: in vivo. It is filed as ADME, organism-based.
The subject of series [21] is MC-38. As to the kind of experiment: Antitumor activity against mouse MC38 cells allografted in C57BL/6 mouse model assessed as reduction in tumor volume at 10 to 20 mg/kg, ip administered once daily for 14 days. The class given is functional, organism-based. Particulars: dose 10-20 mg/kg, time 14.0 day.
Series [22] deals with MC-38. As to the kind of experiment: Antitumor activity against mouse MC38 cells allografted in C57BL/6 mouse model assessed as reduction in tumor volume at 20 mg/kg, ip administered once daily for 14 days relative to control. It is filed as functional. Details: scale not given: the % may be the effect or the level left. Particulars: time 14 day.
In series [23] the test system is MC-38. As to the kind of experiment: Antitumor activity against mouse MC38 cells allografted in C57BL/6 mouse model assessed as reduction in tumor weight at 10 to 20 mg/kg, ip administered once daily for 14 days. Particulars: dose 10-20 mg/kg, time 14.0 day. It is filed as functional, organism-based.
Series [24] relates to MC-38. As to the kind of experiment: Antitumor activity against mouse MC38 cells allografted in C57BL/6 mouse model assessed as reduction in tumor weight at 10 mg/kg, ip administered once daily for 14 days relative to control. It is filed as functional. Also on record: scale not given: the % may be the effect or the level left. Particulars: time 14 day.

Activity calls are given as the source filed them. The rule behind the calls is not given here.

T1 sequence (P07333 whole entry): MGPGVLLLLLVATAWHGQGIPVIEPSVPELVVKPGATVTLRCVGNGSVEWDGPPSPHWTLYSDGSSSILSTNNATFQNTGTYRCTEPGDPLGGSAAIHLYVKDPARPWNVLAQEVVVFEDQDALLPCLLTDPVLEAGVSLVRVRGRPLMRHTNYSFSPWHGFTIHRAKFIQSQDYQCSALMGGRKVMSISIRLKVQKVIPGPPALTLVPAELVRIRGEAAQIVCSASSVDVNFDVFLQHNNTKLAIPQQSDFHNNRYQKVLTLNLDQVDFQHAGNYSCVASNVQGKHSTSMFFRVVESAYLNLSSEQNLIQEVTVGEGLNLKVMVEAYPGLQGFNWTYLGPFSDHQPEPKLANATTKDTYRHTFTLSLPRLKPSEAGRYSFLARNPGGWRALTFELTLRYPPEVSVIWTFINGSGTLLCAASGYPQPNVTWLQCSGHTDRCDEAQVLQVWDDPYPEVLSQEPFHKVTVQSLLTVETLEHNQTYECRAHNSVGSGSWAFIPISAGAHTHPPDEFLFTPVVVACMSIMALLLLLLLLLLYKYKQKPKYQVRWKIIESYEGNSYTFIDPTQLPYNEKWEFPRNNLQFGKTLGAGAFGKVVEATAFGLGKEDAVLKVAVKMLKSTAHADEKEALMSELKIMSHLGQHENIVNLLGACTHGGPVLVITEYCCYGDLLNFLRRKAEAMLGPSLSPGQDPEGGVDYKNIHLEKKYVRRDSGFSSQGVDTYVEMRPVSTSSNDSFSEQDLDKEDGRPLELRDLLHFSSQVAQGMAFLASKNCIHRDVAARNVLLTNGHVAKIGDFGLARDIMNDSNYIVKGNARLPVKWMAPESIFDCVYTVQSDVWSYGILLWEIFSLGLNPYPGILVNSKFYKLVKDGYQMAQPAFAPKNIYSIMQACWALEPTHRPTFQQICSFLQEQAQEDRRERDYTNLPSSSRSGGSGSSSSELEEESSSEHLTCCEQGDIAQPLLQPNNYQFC

In [1], `Cc1nc(NC(=O)N[C@@H]2CCCC[C@H]2O)ccc1Oc1c[nH]c2ncc(Cl)cc12` registered an IC50 of 0.0201 µM. Also, in series [2], the inhibition result is “Active”. Moreover, the inhibition entry in series [3] was “Dose-dependent-effect”; in series [4] it was “Dose-dependent-effect”; in series [14], “Minimal_effect”. In addition, the result in [5], in series [7], in [8] and in [9] was Active. For the same compound, the Kd in series [6] stood at 0.00296 µM. Besides, the Activity in [10] was 1.96%; in series [11], 0.87%; in series [12] it was 2.03%; in [13] it was 1.01%; in series [21], “Active; Better Activity Observed Than Plx3397-Treated Group”; in series [22], 54%. The Activity entry in series [23] was “Active; Lower Tumor Weight Observed Than That Of Plx3397 Treated Group”; in series [24], 39%. Besides, the result in series [15] was inactive. Moreover, the half-life in series [16] was 1.2 h. The results for the AUC(0-t) in series [17] and in [19] were 526 ng·h/mL and 4170 ng·h/mL, respectively. In addition, the Tmax in series [18] turned out to be 1.13 h. This compound registered an AUC(0-inf) in series [20] of 4170 ng·h/mL.

In general, IC50 refers to the point on the concentration scale where inhibition reaches its midpoint. For orientation: Kd means the concentration at which binding is half-saturated. The AUC(0-t) is the area under the concentration-time curve up to a stated or last time point. As usually defined, the Tmax is the time from dosing to the highest level. By AUC(0-inf) is commonly meant the area under the concentration-time curve extrapolated to infinity.
